Measurements reported in article PMC4585259 (Frontiers in Pharmacology, 2015).
Where two headings read alike, the source gives them in different places.

Target: T1, rNav1.2 sodium channels (Rattus norvegicus, UniProt P04775)
T1 construct: host or cells: HEK-293
Assay: QPatch automated patch clamp, inhibition of sodium currents evoked by 5 Hz trains at three extracellular pH values
Assay type: cell-based
Conditions: for class of pH-dependence pattern (cluster analysis): Ward's method on 18 variables of affinity, reversibility, onset; for τoffset / τonset: concentration (lidocaine 300 μM, memantine 30 μM)
Summary of the method: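 Trains of 5 steps from −90 to −10 mV every 20 s. Apparent affinity, onset/offset time constants (single-exponential fits) and reversibility (w−i)/(c−i) were derived from single-concentration data.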

[1] = pH 6.0, single concentration (lidocaine 300 μM, memantine 30 μM), geometric mean of 5, read-out: apparent affinity
[2] = pH 7.3, single concentration (lidocaine 300 μM, memantine 30 μM), geometric mean of 5, read-out: apparent affinity
[3] = pH 8.6, single concentration (lidocaine 300 μM, memantine 30 μM), geometric mean of 5, read-out: apparent affinity
[4] = pH=6.0, cc 30 mM, read-out: Apparent Affinity
[5] = pH=7.3, cc 30 mM, read-out: Apparent Affinity
[6] = pH=8.6, cc 30 mM, read-out: Apparent Affinity

T1 sequence (P04775 whole entry): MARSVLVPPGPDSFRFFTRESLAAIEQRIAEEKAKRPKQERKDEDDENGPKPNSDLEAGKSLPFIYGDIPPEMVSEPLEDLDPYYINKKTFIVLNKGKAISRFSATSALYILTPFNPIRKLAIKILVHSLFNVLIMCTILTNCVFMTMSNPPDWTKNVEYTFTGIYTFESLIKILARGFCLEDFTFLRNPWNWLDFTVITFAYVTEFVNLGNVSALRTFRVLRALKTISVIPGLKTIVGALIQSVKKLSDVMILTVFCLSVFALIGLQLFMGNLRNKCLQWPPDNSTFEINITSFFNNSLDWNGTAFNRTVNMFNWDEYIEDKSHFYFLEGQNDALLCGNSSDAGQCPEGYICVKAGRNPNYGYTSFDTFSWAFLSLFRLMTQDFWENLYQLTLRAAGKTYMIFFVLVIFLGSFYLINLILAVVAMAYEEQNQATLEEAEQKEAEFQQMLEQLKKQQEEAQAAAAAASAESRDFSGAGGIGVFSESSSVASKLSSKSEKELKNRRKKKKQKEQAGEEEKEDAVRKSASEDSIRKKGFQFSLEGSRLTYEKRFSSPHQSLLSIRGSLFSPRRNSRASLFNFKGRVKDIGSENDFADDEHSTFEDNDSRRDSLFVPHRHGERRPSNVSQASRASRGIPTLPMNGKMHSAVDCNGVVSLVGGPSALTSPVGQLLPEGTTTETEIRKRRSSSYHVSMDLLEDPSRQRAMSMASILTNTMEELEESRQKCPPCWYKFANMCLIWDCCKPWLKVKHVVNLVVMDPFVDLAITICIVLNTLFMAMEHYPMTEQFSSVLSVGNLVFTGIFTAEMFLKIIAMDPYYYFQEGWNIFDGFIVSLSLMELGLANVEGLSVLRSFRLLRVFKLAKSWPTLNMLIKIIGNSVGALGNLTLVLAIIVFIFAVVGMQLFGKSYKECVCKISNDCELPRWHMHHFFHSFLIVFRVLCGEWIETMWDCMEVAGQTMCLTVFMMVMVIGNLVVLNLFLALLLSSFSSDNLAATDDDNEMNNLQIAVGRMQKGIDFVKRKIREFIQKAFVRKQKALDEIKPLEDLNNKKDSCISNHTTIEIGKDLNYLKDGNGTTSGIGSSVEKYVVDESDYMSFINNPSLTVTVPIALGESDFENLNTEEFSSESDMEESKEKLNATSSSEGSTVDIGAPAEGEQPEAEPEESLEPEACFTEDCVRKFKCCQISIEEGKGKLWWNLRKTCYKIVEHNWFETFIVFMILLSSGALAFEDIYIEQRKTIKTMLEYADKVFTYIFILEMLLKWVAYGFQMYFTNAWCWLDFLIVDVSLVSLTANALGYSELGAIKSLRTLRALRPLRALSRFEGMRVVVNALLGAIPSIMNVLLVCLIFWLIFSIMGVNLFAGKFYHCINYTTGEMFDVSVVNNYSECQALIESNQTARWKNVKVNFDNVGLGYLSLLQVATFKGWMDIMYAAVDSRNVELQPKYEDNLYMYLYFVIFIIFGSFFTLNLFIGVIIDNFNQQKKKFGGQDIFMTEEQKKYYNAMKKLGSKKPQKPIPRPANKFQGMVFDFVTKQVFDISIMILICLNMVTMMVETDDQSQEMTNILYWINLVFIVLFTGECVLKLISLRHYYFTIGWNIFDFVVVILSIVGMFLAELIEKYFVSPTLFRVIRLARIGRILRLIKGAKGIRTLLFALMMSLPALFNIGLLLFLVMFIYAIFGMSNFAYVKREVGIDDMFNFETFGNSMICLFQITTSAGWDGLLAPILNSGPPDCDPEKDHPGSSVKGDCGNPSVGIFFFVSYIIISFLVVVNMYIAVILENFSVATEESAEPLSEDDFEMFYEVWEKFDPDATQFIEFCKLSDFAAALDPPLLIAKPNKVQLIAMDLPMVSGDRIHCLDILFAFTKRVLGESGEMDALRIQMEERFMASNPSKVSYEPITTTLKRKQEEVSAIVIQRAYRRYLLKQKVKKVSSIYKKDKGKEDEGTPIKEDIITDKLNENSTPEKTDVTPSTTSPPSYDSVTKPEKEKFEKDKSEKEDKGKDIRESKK

`CCc1nn(CCCN2CCN(c3cccc(Cl)c3)CC2)c(=O)n1CCOc1ccccc1` [nefazodone] was tested, and the “class of pH-dependence pattern (cluster analysis)” value (“class of pH-dependence pattern” below) was “Class G”, the alkalization-induced recovery (neutral-to-alkalic solution exchange, in words) was “prominent alkalization-induced recovery” and the “reversibility at all three pH values” (pH 6.0, 7.3 and 8.6) was “below 0.6”. The “Ratio Reversibility” value (pH 6.0/7.3, cc 30 mM) was 0.854, the “Ratio Tau Offset” value (pH 6.0/7.3, cc 30 mM) was 0.978 and the “Ratio Tau Onset” value (pH 6.0/7.3, cc 30 mM) was 0.875. The “log Ratio App Aff” value (pH 6.0/7.3, cc 30 mM) was 0.341, the “Ratio Reversibility” value (pH 6.0/8.6, cc 30 mM) was 1.152 and the “Ratio Tau Offset” value (pH 6.0/8.6, cc 30 mM) was 0.825. The “Ratio Tau Onset” value (pH 6.0/8.6, cc 30 mM) was 0.863, the “log Ratio App Aff” value (pH 6.0/8.6, cc 30 mM) was 0.122 and the τoffset (pH 6.0) was 13.20 s. The τonset (pH 6.0) was 12.60 s, the Kd [1] was 38.2 µM and the “Ratio Reversibility” value (pH 7.3/8.6, cc 30 mM) was 1.349. The “Ratio Tau Offset” value (pH 7.3/8.6, cc 30 mM) was 0.844, the “Ratio Tau Onset” value (pH 7.3/8.6, cc 30 mM) was 0.986 and the “log Ratio App Aff” value (pH 7.3/8.6, cc 30 mM) was -0.220. The τoffset (pH 7.3) was 13.50 s, the τonset (pH 7.3) was 14.40 s and the Kd [2] was 17.4 µM. For the same molecule, the τoffset (pH 8.6) was 16.00 s, the τonset (pH 8.6) was 14.60 s and the Kd [3] was 28.9 µM. It also gave a Reversibility (pH=6.0, cc 30 mM) of 0.51, a Kd [4] of 38.2 µM and a Reversibility (pH=7.3, cc 30 mM) of 0.59. It also gave a Kd [5] of 17.4 µM, a Reversibility (pH=8.6, cc 30 mM) of 0.44 and a Kd [6] of 28.9 µM.
`CNCCC(Oc1ccccc1OC)c1ccccc1` (stereo not drawn) [nisoxetine] was tested, and the Kd (Apparent Affinity, pH=6.0, cc 100 mM) was 210 µM, the Kd (Apparent Affinity, pH=7.3, cc 100 mM) was 80.1 µM and the Kd (Apparent Affinity, pH=8.6, cc 100 mM) was 28.6 µM. The “class of pH-dependence pattern” value was “Class F”, the Kd (apparent affinity, pH 6.0, single concentration (lidocaine 300 μM, memantine 30 μM), geometric mean of 5) was 210 µM and the Kd (apparent affinity, pH 7.3, single concentration (lidocaine 300 μM, memantine 30 μM), geometric mean of 5) was 80.1 µM. For the same molecule, the Kd (apparent affinity, pH 8.6, single concentration (lidocaine 300 μM, memantine 30 μM), geometric mean of 5) was 28.6 µM, the “Ratio Reversibility” value (pH 6.0/7.3, cc 100 mM) was 1.076 and the “Ratio Tau Offset” value (pH 6.0/7.3, cc 100 mM) was 0.636. For the same molecule, the “Ratio Tau Onset” value (pH 6.0/7.3, cc 100 mM) was 0.550, the “log Ratio App Aff” value (pH 6.0/7.3, cc 100 mM) was 0.419 and the “Ratio Reversibility” value (pH 6.0/8.6, cc 100 mM) was 1.973. For the same molecule, the “Ratio Tau Offset” value (pH 6.0/8.6, cc 100 mM) was 0.947, the “Ratio Tau Onset” value (pH 6.0/8.6, cc 100 mM) was 1.245 and the “log Ratio App Aff” value (pH 6.0/8.6, cc 100 mM) was 0.867. The τoffset (pH 6.0) was 19.60 s, the τonset (pH 6.0) was 13.20 s and the “Ratio Reversibility” value (pH 7.3/8.6, cc 100 mM) was 1.833. For the same molecule, the “Ratio Tau Offset” value (pH 7.3/8.6, cc 100 mM) was 1.489, the “Ratio Tau Onset” value (pH 7.3/8.6, cc 100 mM) was 2.263 and the “log Ratio App Aff” value (pH 7.3/8.6, cc 100 mM) was 0.448. For the same molecule, the τoffset (pH 7.3) was 30.82 s, the τonset (pH 7.3) was 23.99 s and the τoffset (pH 8.6) was 20.70 s. The τonset (pH 8.6) was 10.60 s, the Reversibility (pH=6.0, cc 100 mM) was 0.75 and the Reversibility (pH=7.3, cc 100 mM) was 0.69. It also gave a Reversibility (pH=8.6, cc 100 mM) of 0.38.
In the case of `Fc1ccc([C@@H]2CCNC[C@H]2COc2ccc3c(c2)OCO3)cc1` [paroxetine], the “class of pH-dependence pattern” value is reported as “Class C”, the “effect of alkalic pH on onset/offset kinetics” value (in words) is reported as “acceleration of onset” and the “Ratio Reversibility” value (pH 6.0/7.3, cc 30 mM) is reported as 1.674. For the same molecule, the “Ratio Tau Offset” value (pH 6.0/7.3, cc 30 mM) was 0.896, the “Ratio Tau Onset” value (pH 6.0/7.3, cc 30 mM) was 1.411 and the “log Ratio App Aff” value (pH 6.0/7.3, cc 30 mM) was 0.413. The “Ratio Reversibility” value (pH 6.0/8.6, cc 30 mM) was 6.394, the “Ratio Tau Offset” value (pH 6.0/8.6, cc 30 mM) was 1.191 and the “Ratio Tau Onset” value (pH 6.0/8.6, cc 30 mM) was 2.000. For the same molecule, the “log Ratio App Aff” value (pH 6.0/8.6, cc 30 mM) was 0.762, the τoffset (pH 6.0) was 33.83 s and the τonset (pH 6.0) was 47.12 s. For the same molecule, the Kd [1] was 49.6 µM, the “Ratio Reversibility” value (pH 7.3/8.6, cc 30 mM) was 3.820 and the “Ratio Tau Offset” value (pH 7.3/8.6, cc 30 mM) was 1.329. For the same molecule, the “Ratio Tau Onset” value (pH 7.3/8.6, cc 30 mM) was 1.418, the “log Ratio App Aff” value (pH 7.3/8.6, cc 30 mM) was 0.349 and the τoffset (pH 7.3) was 37.75 s. The τonset (pH 7.3) was 33.39 s, the Kd [2] was 19.2 µM and the τoffset (pH 8.6) was 28.40 s. The τonset (pH 8.6) was 23.55 s, the Kd [3] was 8.57 µM and the Reversibility (pH=6.0, cc 30 mM) was 0.65. It also gave a Kd [4] of 49.6 µM, a Reversibility (pH=7.3, cc 30 mM) of 0.39 and a Kd [5] of 19.2 µM. For the same molecule, the Reversibility (pH=8.6, cc 30 mM) was 0.10 and the Kd [6] was 8.57 µM.
With `O=C1NC(=O)C(c2ccccc2)(c2ccccc2)N1` [phenytoin] the “class of pH-dependence pattern” value was “Class A”, the “Ratio Reversibility” value (pH 6.0/7.3, cc 300 mM) was 1.014 and the “Ratio Tau Offset” value (pH 6.0/7.3, cc 300 mM) was 1.227. The “Ratio Tau Onset” value (pH 6.0/7.3, cc 300 mM) was 0.985, the “log Ratio App Aff” value (pH 6.0/7.3, cc 300 mM) was 0.026 and the “Ratio Reversibility” value (pH 6.0/8.6, cc 300 mM) was 1.313. The “Ratio Tau Offset” value (pH 6.0/8.6, cc 300 mM) was 0.993, the “Ratio Tau Onset” value (pH 6.0/8.6, cc 300 mM) was 0.650 and the “log Ratio App Aff” value (pH 6.0/8.6, cc 300 mM) was 0.109. For the same molecule, the τoffset (pH 6.0) was 21.26 s, the τonset (pH 6.0) was 13.00 s and the Kd [1] was 830 µM. The “Ratio Reversibility” value (pH 7.3/8.6, cc 300 mM) was 1.295, the “Ratio Tau Offset” value (pH 7.3/8.6, cc 300 mM) was 0.809 and the “Ratio Tau Onset” value (pH 7.3/8.6, cc 300 mM) was 0.660. For the same molecule, the “log Ratio App Aff” value (pH 7.3/8.6, cc 300 mM) was 0.083, the τoffset (pH 7.3) was 17.32 s and the τonset (pH 7.3) was 13.20 s. It also gave a Kd [2] of 781 µM, a τoffset (pH 8.6) of 21.40 s and a τonset (pH 8.6) of 20.00 s. For the same molecule, the Kd [3] was 646 µM, the Reversibility (pH=6.0, cc 300 mM) was 0.83 and the Kd (pH=6.0, cc 300 mM, read-out: Apparent Affinity) was 830 µM. For the same molecule, the Reversibility (pH=7.3, cc 300 mM) was 0.82, the Kd (pH=7.3, cc 300 mM, read-out: Apparent Affinity) was 781 µM and the Reversibility (pH=8.6, cc 300 mM) was 0.63. It also gave a Kd (pH=8.6, cc 300 mM, read-out: Apparent Affinity) of 646 µM.
`COc1ccccc1OCC(O)CN1CCN(CC(=O)Nc2c(C)cccc2C)CC1` (stereo not drawn) [ranolazine] was tested, and the “class of pH-dependence pattern” value was “Class A”, the “Ratio Reversibility” value (pH 6.0/7.3, cc 100 mM) was 0.873 and the “Ratio Tau Offset” value (pH 6.0/7.3, cc 100 mM) was 1.223. The “Ratio Tau Onset” value (pH 6.0/7.3, cc 100 mM) was 0.632, the “log Ratio App Aff” value (pH 6.0/7.3, cc 100 mM) was -0.038 and the “Ratio Reversibility” value (pH 6.0/8.6, cc 100 mM) was 1.042. For the same molecule, the “Ratio Tau Offset” value (pH 6.0/8.6, cc 100 mM) was 1.663, the “Ratio Tau Onset” value (pH 6.0/8.6, cc 100 mM) was 0.667 and the “log Ratio App Aff” value (pH 6.0/8.6, cc 100 mM) was -0.072. For the same molecule, the τoffset (pH 6.0) was 29.60 s, the τonset (pH 6.0) was 12.00 s and the Kd [1] was 206 µM. For the same molecule, the “Ratio Reversibility” value (pH 7.3/8.6, cc 100 mM) was 1.194, the “Ratio Tau Offset” value (pH 7.3/8.6, cc 100 mM) was 1.360 and the “Ratio Tau Onset” value (pH 7.3/8.6, cc 100 mM) was 1.056. The “log Ratio App Aff” value (pH 7.3/8.6, cc 100 mM) was -0.034, the τoffset (pH 7.3) was 24.20 s and the τonset (pH 7.3) was 19.00 s. For the same molecule, the Kd [2] was 225 µM, the τoffset (pH 8.6) was 17.80 s and the τonset (pH 8.6) was 18.00 s. The Kd [3] was 243 µM, the Reversibility (pH=6.0, cc 100 mM) was 0.76 and the Kd (pH=6.0, cc 100 mM, read-out: Apparent Affinity) was 206 µM. The Reversibility (pH=7.3, cc 100 mM) was 0.88, the Kd (pH=7.3, cc 100 mM, read-out: Apparent Affinity) was 225 µM and the Reversibility (pH=8.6, cc 100 mM) was 0.73. The Kd (pH=8.6, cc 100 mM, read-out: Apparent Affinity) was 243 µM.
In the case of `Nc1nc2ccc(OC(F)(F)F)cc2s1` [riluzole], the “class of pH-dependence pattern” value is reported as “Class G”, the τoffset (pH 6.0) is reported as 23.60 s and the τonset (pH 6.0) is reported as 9.20 s. It also gave a τoffset (pH 7.3) of 21.40 s, a τonset (pH 7.3) of 9.60 s and a τoffset (pH 8.6) of 23.40 s. For the same molecule, the τonset (pH 8.6) was 10.40 s, the Reversibility (pH=6.0, cc 30 mM) was 0.45 and the Reversibility (pH=7.3, cc 30 mM) was 0.73. For the same molecule, the Reversibility (pH=8.6, cc 30 mM) was 0.45.
